In patent US6949583B2, “Aminoalkoxybenzoyl-benzofuran or benzothiophene derivatives, method of preparing same and compositions containing same” (Sanofi-Synthelabo, priority 2000, dated 2005):
Counter-ions that a name gives are not always drawn.

| Structure (SMILES) | melting point [°C] |
| --- | --- |
| CCCCc1oc2cc(C)c(C(=O)OC(C)C)cc2c1C(=O)c1ccc(CCCN(CC)CC)cc1 (as salt: oxalate) | 155 to 157 |
| CCCCc1oc2ccc(C(=O)OC)cc2c1C(=O)c1ccc(CC(O)CN(CCCC)CCCC)cc1 (stereo not shown) (as salt: oxalate) | 128 to 130 |
| CCCCc1oc2ccc(C(=O)OC(C)C)cc2c1C(=O)c1cc(C)c(CCCN(CCCC)CCCC)c(C)c1 (as salt: oxalate) | 119 to 121 |
| CCCCCc1oc2ccc(C(=O)OC(C)C)cc2c1C(=O)c1ccc(CCCN(CCCC)CCCC)cc1 (as salt: oxalate) | 124 to 126 |
| CCCCN(CCCC)CCCc1ccc(C(=O)c2c(C3CCCCC3)oc3ccc(C(=O)OC(C)C)cc23)cc1 (as salt: oxalate) | 124 to 126 |
| CCCCc1oc2ccc(C(=O)OC(C)C)cc2c1C(=O)c1ccc(CCCN(CCCC)CCCC)o1 (as salt: oxalate) | 75 to 78 |
| CCCCc1oc2ccc(C(=O)OC(C)C)cc2c1C(=O)c1ccc(CC(O)CN(CCCC)CCCC)cc1 (stereo not shown) (as salt: oxalate) | 90 to 91 |
| CCCCc1oc2ccc(C(=O)OC)cc2c1C(=O)c1ccc(CN(CCCC)CCCC)cc1 (as salt: oxalate) | 96 to 97 |
| CCCCc1oc2ccc(C(=O)OC(C)C)cc2c1C(=O)c1ccc([C@@H]([C@@H](C)O)N(CCCC)CCCC)cc1 (as salt: oxalate) | 150 to 151 |
| CCCCc1oc2ccc(C(=O)OC)cc2c1C(=O)c1ccc(CN2CCN(CC)CC2)cc1 (as salt: oxalate) | 220 to 221 |
| CCCCN(CCCC)CCCc1ccc(C(=O)c2c(C)oc3ccc(C(=O)OC(C)C)cc23)cc1 (as salt: oxalate) | 107 to 108 |
| CCCCc1oc2ccc(C(=O)OC(C)C)cc2c1C(=O)c1ccc(CN2CCN(CC)CC2)cc1 (as salt: oxalate) | 222 to 224 |
| CCCCc1oc2ccc(C(=O)OC(C)C)cc2c1C(=O)c1ccc([C@@H](O)[C@@H](C)N(CCCC)CCCC)cc1 (as salt: oxalate) | 107 to 108 |
| CCCCc1sc2ccc(C(=O)OC(C)C)cc2c1C(=O)c1ccc(CCCN(CCCC)CCCC)cc1 (as salt: oxalate) | 86 to 89 |
| CCCCc1oc2ccc(C(=O)OC(C)C)cc2c1C(=O)c1ccc(C(C)(C)CCN(CCCC)CCCC)cc1 (as salt: oxalate) | 92 to 93 |
| CCCCc1oc2ccc(C(=O)OC(C)C)cc2c1C(=O)c1ccc(CCCN(CCCC)CCCC)s1 (as salt: oxalate) | 100 |
| CCCCc1oc2ccc(C(=O)OC(C)C)cc2c1C(=O)c1ccc(COCCCN(CCCC)CCCC)cc1 (as salt: oxalate) | 73 to 74 |
| CCCCc1oc2ccc(C(=O)OC(C)C)cc2c1C(=O)c1ccc(C(O)CN(CCCC)CCCC)cc1 (stereo not shown) (as salt: oxalate) | 134 to 135 |
| CCCCN(CCCC)COCc1ccc(C(=O)c2c(C(C)C)oc3ccc(C(=O)OC(C)C)cc23)cc1 (as salt: oxalate) | 106 to 108 |
| CCCCc1oc2ccc(C(=O)OC(C)C)cc2c1C1(c2ccc(CCCN(CCCC)CCCC)cc2)OCCO1 (as salt: oxalate) | 106 to 108 |
| CCCCc1oc(C)c(C(=O)OCC)c1C(=O)c1ccc(CCCN(CCCC)CCCC)cc1 (as salt: oxalate) | 133 to 135 |

Continued, values first:

| melting point [°C] | Structure (SMILES) |
| --- | --- |
| 155 to 157 | CCCCN(CCCC)CCCc1ccc(C(=O)c2c(CCC)oc3ccc(C(=O)OC(C)C)cc23)cc1 (as salt: oxalate) |
| 124 to 126 | CCCCc1oc2ccc(C(=O)OC)cc2c1C(=O)c1ccc(C(O)CN(CCCC)CCCC)cc1 (stereo not shown) (as salt: oxalate) |
| 105 to 107 | CCCCN(CCCC)CCCc1ccc(C(=O)c2c(CC(C)C)oc3ccc(C(=O)OC(C)C)cc23)cc1 (as salt: oxalate) |
| 107 to 108 | CCCCc1oc2ccc(C(=O)OC(C)C)cc2c1C(=O)c1ccc(CN(CCCC)CCCC)cc1 (as salt: oxalate) |
| 107 to 108 | CCCCN(CCCC)CCCc1ccc(C(=O)c2c(CCC(=O)OC)oc3ccc(C(=O)OC(C)C)cc23)cc1 (as salt: oxalate) |
| 85 to 88 | CCCCc1oc2ccc(C(=O)OC(C)C)cc2c1C(=O)c1ccccc1CCCN(CCCC)CCCC (as salt: oxalate) |
| 87 to 90 | CCCCc1oc2ccc(C(=O)OC(C)C)cc2c1C(=O)c1cccc(CCCN(CCCC)CCCC)c1 (as salt: oxalate) |
| 105 | CCCCN(CCCC)CCCc1ccc(C(=O)c2c(CCCC(=O)OC)oc3ccc(C(=O)OC(C)C)cc23)cc1 (as salt: oxalate) |
| 73 | CCCCc1oc2ccc(C(=O)OC(C)C)cc2c1C(=O)c1ccc(COCCN(CCCC)CCCC)cc1 (as salt: oxalate) |
| 87 to 89 | CCCCc1oc2ccc(C(=O)OC(C)C)cc2c1C(=O)c1cc(Cl)c(CCCN(CCCC)CCCC)c(Cl)c1 (as salt: oxalate) |
